In the supplement of paper PMC8612539:
In brackets after ≈: the same amount, converted by molar mass.

Tested on: Histophilus somni
Experiment: minimum inhibitory concentration (MIC)
Method: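 Broth microdilution MIC (Sensititre BOPO7F bovine plate, CLSI methods) of 19 antimicrobials against field isolates of P. multocida, M. haemolytica, H. somni (deep nasopharyngeal swabs) and E. coli, Enterococcus spp. (rectal swabs) from weaned dairy heifers. Incubation 16-24 h at 35 C. MIC is the lowest concentration preventing visible growth. Values with <= or > lie at the tested range limits. Trimethoprim-sulfamethoxazole is given as the trimethoprim component of a 1:19 mixture.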

CC[C@H]1OC(=O)C[C@@H](O)[C@H](C)[C@@H](O[C@@H]2O[C@H](C)[C@@H](O)[C@H](N(C)C)[C@H]2O)[C@@H](CCN2CCCCC2)C[C@@H](C)C(=O)/C=C/C(C)=C/[C@@H]1CN1CCCCC1 [Tildipirosin]
minimum inhibitory concentration (isolate (source animal id): 3): ≤ 1 µg/mL
minimum inhibitory concentration (isolate (source animal id): 4): 2 µg/mL (≈ 2.72 µM)
minimum inhibitory concentration (isolate (source animal id): 7): ≤ 1 µg/mL
minimum inhibitory concentration (isolate (source animal id): 14): ≤ 1 µg/mL
minimum inhibitory concentration (isolate (source animal id): 15): 4 µg/mL (≈ 5.45 µM)
minimum inhibitory concentration (isolate (source animal id): 17): ≤ 1 µg/mL
minimum inhibitory concentration (isolate (source animal id): 18): ≤ 1 µg/mL
minimum inhibitory concentration (isolate (source animal id): 20): ≤ 1 µg/mL
minimum inhibitory concentration (isolate (source animal id): 23): 2 µg/mL (≈ 2.72 µM)
minimum inhibitory concentration (isolate (source animal id): 45): 4 µg/mL (≈ 5.45 µM)
minimum inhibitory concentration (isolate (source animal id): 53): 4 µg/mL (≈ 5.45 µM)
minimum inhibitory concentration (isolate (source animal id): 83): 2 µg/mL (≈ 2.72 µM)
minimum inhibitory concentration (isolate (source animal id): 88): 2 µg/mL (≈ 2.72 µM)
minimum inhibitory concentration (isolate (source animal id): 92): 4 µg/mL (≈ 5.45 µM)
minimum inhibitory concentration (isolate (source animal id): 93): ≤ 1 µg/mL
minimum inhibitory concentration (isolate (source animal id): 99): 2 µg/mL (≈ 2.72 µM)
minimum inhibitory concentration (isolate (source animal id): 100): 4 µg/mL (≈ 5.45 µM)
minimum inhibitory concentration (isolate (source animal id): 105): ≤ 1 µg/mL
minimum inhibitory concentration (isolate (source animal id): 107): 2 µg/mL (≈ 2.72 µM)
minimum inhibitory concentration (isolate (source animal id): 108): 4 µg/mL (≈ 5.45 µM)
minimum inhibitory concentration (isolate (source animal id): 109): 4 µg/mL (≈ 5.45 µM)
minimum inhibitory concentration (isolate (source animal id): 110): 4 µg/mL (≈ 5.45 µM)
minimum inhibitory concentration (isolate (source animal id): 117): ≤ 1 µg/mL
minimum inhibitory concentration (isolate (source animal id): 121): ≤ 1 µg/mL
minimum inhibitory concentration (isolate (source animal id): 123): 2 µg/mL (≈ 2.72 µM)
minimum inhibitory concentration (isolate (source animal id): 124): 2 µg/mL (≈ 2.72 µM)
minimum inhibitory concentration (isolate (source animal id): 127): ≤ 1 µg/mL
minimum inhibitory concentration (isolate (source animal id): 128): 2 µg/mL (≈ 2.72 µM)
minimum inhibitory concentration (isolate (source animal id): 130): 2 µg/mL (≈ 2.72 µM)
minimum inhibitory concentration (isolate (source animal id): 132): 4 µg/mL (≈ 5.45 µM)
minimum inhibitory concentration (isolate (source animal id): 135): 2 µg/mL (≈ 2.72 µM)
minimum inhibitory concentration (isolate (source animal id): 140): 2 µg/mL (≈ 2.72 µM)
minimum inhibitory concentration (isolate (source animal id): 141): 2 µg/mL (≈ 2.72 µM)
minimum inhibitory concentration (isolate (source animal id): 142): > 16 µg/mL
minimum inhibitory concentration (isolate (source animal id): 144): 4 µg/mL (≈ 5.45 µM)
minimum inhibitory concentration (isolate (source animal id): 146): 4 µg/mL (≈ 5.45 µM)
minimum inhibitory concentration (isolate (source animal id): 147): > 16 µg/mL
minimum inhibitory concentration (isolate (source animal id): 151): 2 µg/mL (≈ 2.72 µM)
minimum inhibitory concentration (isolate (source animal id): 153): 8 µg/mL (≈ 10.9 µM)
minimum inhibitory concentration (isolate (source animal id): 154): > 16 µg/mL
minimum inhibitory concentration (isolate (source animal id): 156): > 16 µg/mL
minimum inhibitory concentration (isolate (source animal id): 157): 8 µg/mL (≈ 10.9 µM)
minimum inhibitory concentration (isolate (source animal id): 176): 2 µg/mL (≈ 2.72 µM)
minimum inhibitory concentration (isolate (source animal id): 183): 2 µg/mL (≈ 2.72 µM)
minimum inhibitory concentration (isolate (source animal id): 186): 4 µg/mL (≈ 5.45 µM)
minimum inhibitory concentration (isolate (source animal id): 196): 4 µg/mL (≈ 5.45 µM)
minimum inhibitory concentration (isolate (source animal id): 198): 4 µg/mL (≈ 5.45 µM)
minimum inhibitory concentration (isolate (source animal id): 200): 8 µg/mL (≈ 10.9 µM)
minimum inhibitory concentration (isolate (source animal id): 206): 8 µg/mL (≈ 10.9 µM)
minimum inhibitory concentration (isolate (source animal id): 208): 8 µg/mL (≈ 10.9 µM)
minimum inhibitory concentration (isolate (source animal id): 210): 2 µg/mL (≈ 2.72 µM)
minimum inhibitory concentration (isolate (source animal id): 212): ≤ 1 µg/mL
minimum inhibitory concentration (isolate (source animal id): 215): 4 µg/mL (≈ 5.45 µM)
minimum inhibitory concentration (isolate (source animal id): 216): 8 µg/mL (≈ 10.9 µM)
minimum inhibitory concentration (isolate (source animal id): 218): 4 µg/mL (≈ 5.45 µM)
minimum inhibitory concentration (isolate (source animal id): 219): 8 µg/mL (≈ 10.9 µM)
minimum inhibitory concentration (isolate (source animal id): 224): 8 µg/mL (≈ 10.9 µM)
minimum inhibitory concentration (isolate (source animal id): 228): 4 µg/mL (≈ 5.45 µM)
minimum inhibitory concentration (isolate (source animal id): 230): ≤ 1 µg/mL
minimum inhibitory concentration (isolate (source animal id): 233): ≤ 1 µg/mL
minimum inhibitory concentration (isolate (source animal id): 238): ≤ 1 µg/mL
minimum inhibitory concentration (isolate (source animal id): 239): 2 µg/mL (≈ 2.72 µM)
minimum inhibitory concentration (isolate (source animal id): 241): 2 µg/mL (≈ 2.72 µM)
minimum inhibitory concentration (isolate (source animal id): 242): 2 µg/mL (≈ 2.72 µM)
minimum inhibitory concentration (isolate (source animal id): 243): ≤ 1 µg/mL
minimum inhibitory concentration (isolate (source animal id): 245): ≤ 1 µg/mL
minimum inhibitory concentration (isolate (source animal id): 246): 4 µg/mL (≈ 5.45 µM)
minimum inhibitory concentration (isolate (source animal id): 247): 2 µg/mL (≈ 2.72 µM)
minimum inhibitory concentration (isolate (source animal id): 248): ≤ 1 µg/mL
minimum inhibitory concentration (isolate (source animal id): 250): 2 µg/mL (≈ 2.72 µM)
minimum inhibitory concentration (isolate (source animal id): 251): 4 µg/mL (≈ 5.45 µM)
minimum inhibitory concentration (isolate (source animal id): 252): 4 µg/mL (≈ 5.45 µM)
minimum inhibitory concentration (isolate (source animal id): 254): 4 µg/mL (≈ 5.45 µM)
minimum inhibitory concentration (isolate (source animal id): 258): 2 µg/mL (≈ 2.72 µM)
minimum inhibitory concentration (isolate (source animal id): 259): 2 µg/mL (≈ 2.72 µM)
minimum inhibitory concentration (isolate (source animal id): 262): ≤ 1 µg/mL
minimum inhibitory concentration (isolate (source animal id): 264): ≤ 1 µg/mL
minimum inhibitory concentration (isolate (source animal id): 265): 2 µg/mL (≈ 2.72 µM)
minimum inhibitory concentration (isolate (source animal id): 266): 2 µg/mL (≈ 2.72 µM)
minimum inhibitory concentration (isolate (source animal id): 267): 2 µg/mL (≈ 2.72 µM)
minimum inhibitory concentration (isolate (source animal id): 269): 2 µg/mL (≈ 2.72 µM)
minimum inhibitory concentration (isolate (source animal id): 271): 2 µg/mL (≈ 2.72 µM)
minimum inhibitory concentration (isolate (source animal id): 272): ≤ 1 µg/mL
minimum inhibitory concentration (isolate (source animal id): 274): ≤ 1 µg/mL
minimum inhibitory concentration (isolate (source animal id): 276): ≤ 1 µg/mL
minimum inhibitory concentration (isolate (source animal id): 278): 2 µg/mL (≈ 2.72 µM)
minimum inhibitory concentration (isolate (source animal id): 280): ≤ 1 µg/mL
minimum inhibitory concentration (isolate (source animal id): 281): 4 µg/mL (≈ 5.45 µM)
minimum inhibitory concentration (isolate (source animal id): 283): 2 µg/mL (≈ 2.72 µM)
minimum inhibitory concentration (isolate (source animal id): 288): 4 µg/mL (≈ 5.45 µM)
minimum inhibitory concentration (isolate (source animal id): 291): 2 µg/mL (≈ 2.72 µM)
minimum inhibitory concentration (isolate (source animal id): 292): 4 µg/mL (≈ 5.45 µM)
minimum inhibitory concentration (isolate (source animal id): 296): 2 µg/mL (≈ 2.72 µM)
minimum inhibitory concentration (isolate (source animal id): 306): 8 µg/mL (≈ 10.9 µM)
minimum inhibitory concentration (isolate (source animal id): 336): 8 µg/mL (≈ 10.9 µM)
minimum inhibitory concentration (isolate (source animal id): 337): 8 µg/mL (≈ 10.9 µM)
minimum inhibitory concentration (isolate (source animal id): 341): 4 µg/mL (≈ 5.45 µM)
